# According to US7045515B2, “β-lactam compounds process for reproducing the same and serum cholesterol-lowering agents containing the same” (Kotobuki Pharmaceutical Co., Ltd., priority 2001, dated 2006):
# Tested on: α-N-acetyl-D-galactosaminidase
# Test: Biological stability test against glycosidase (remaining substrate by NMR)
# Type: in vitro ADME
# Settings: for remaining substrate: α-N-acetyl galactosaminidase 0.32 unit, citric acid buffer pD=3, 35° C.
# Protocol: [Biological Stability Test]
# To evaluate the stability of C-glycoside, the biological stability of C-allyl derivative (A) and O-allyl derivative (B) against to α-N-acetyl-D-galactosaminidase as glycosidase ware compared according to Mark von Itzstein's method (Org. Lett., 1999, 1, 443–446).
# [drawing 118] • enzyme; α-N-acetyl galactosaminidase 0.32 unit (1.69 unit/mL 0.1% BSA containing 0.5M sodium citrate buffer) • solvent; citric acid buffer (pD=3) 0.6 mL • temperature; 35° C. • procedure; Substrate (2 mg) was dissolved in citric acid buffer (0.6 mL) and α-N-acetyl galactosaminidase (0.32 unit) was added. NMR spectrum was determined in every constant time and the content of the remaining substrates were determined.
compound,measurement,setting,value
C=CC[C@H]1O[C@H](CO)[C@H](O)[C@H](O)[C@H]1NC(C)=O [A],effect of enzyme on substrate (degradation),after 24 h,unaffected by enzyme
same,remaining substrate,time 2,100
same,remaining substrate,time 4,100
same,remaining substrate,time 6,100
same,remaining substrate,time 8,100
same,remaining substrate,time 10,100
same,remaining substrate,time 12,100
same,remaining substrate,time 18,100
same,remaining substrate,time 24,100
